In article PMC11945486, “TAS1R2/TAS1R3 Single-Nucleotide Polymorphisms Affect Sweet Taste Receptor Activation by Sweeteners: The SWEET Project” (Nutrients, 2025):
Like-named read-outs stand apart in the source and are kept apart here. Blank lines part the entries; values can stand above or below the molecule they belong to. No end group written: not given here.

Target: T1, human TAS1R2-WT/TAS1R3-G832R (Homo sapiens, UniProt Q7RTX0+Q8TE23, G832R)
T1 construct: expressed in transfected cells; host or cells: HEK293T stably expressing Gα16gust44
T1 sequence (Q8TE23 20-839): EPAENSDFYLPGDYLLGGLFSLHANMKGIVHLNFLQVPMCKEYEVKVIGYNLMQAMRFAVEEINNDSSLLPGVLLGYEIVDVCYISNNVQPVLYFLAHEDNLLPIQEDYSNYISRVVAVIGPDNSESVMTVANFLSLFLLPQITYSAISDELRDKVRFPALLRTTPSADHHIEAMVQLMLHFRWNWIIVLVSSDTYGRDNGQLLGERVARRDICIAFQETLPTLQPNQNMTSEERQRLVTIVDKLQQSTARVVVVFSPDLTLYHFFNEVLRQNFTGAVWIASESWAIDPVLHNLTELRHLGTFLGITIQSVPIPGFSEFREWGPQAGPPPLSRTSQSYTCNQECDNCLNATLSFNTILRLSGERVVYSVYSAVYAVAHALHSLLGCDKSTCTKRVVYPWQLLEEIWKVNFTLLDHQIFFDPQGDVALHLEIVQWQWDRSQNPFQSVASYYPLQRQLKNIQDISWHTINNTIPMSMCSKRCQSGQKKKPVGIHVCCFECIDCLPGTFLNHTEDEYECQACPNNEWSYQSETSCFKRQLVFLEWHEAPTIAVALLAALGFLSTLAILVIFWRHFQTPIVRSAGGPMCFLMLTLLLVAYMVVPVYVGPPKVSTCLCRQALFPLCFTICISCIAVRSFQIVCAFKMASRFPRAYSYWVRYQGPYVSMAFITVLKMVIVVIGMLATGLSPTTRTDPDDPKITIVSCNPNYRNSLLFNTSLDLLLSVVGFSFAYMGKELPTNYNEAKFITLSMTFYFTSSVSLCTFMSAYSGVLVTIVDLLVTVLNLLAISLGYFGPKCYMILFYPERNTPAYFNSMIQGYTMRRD
T1 sequence (Q7RTX0 21-852 G832R): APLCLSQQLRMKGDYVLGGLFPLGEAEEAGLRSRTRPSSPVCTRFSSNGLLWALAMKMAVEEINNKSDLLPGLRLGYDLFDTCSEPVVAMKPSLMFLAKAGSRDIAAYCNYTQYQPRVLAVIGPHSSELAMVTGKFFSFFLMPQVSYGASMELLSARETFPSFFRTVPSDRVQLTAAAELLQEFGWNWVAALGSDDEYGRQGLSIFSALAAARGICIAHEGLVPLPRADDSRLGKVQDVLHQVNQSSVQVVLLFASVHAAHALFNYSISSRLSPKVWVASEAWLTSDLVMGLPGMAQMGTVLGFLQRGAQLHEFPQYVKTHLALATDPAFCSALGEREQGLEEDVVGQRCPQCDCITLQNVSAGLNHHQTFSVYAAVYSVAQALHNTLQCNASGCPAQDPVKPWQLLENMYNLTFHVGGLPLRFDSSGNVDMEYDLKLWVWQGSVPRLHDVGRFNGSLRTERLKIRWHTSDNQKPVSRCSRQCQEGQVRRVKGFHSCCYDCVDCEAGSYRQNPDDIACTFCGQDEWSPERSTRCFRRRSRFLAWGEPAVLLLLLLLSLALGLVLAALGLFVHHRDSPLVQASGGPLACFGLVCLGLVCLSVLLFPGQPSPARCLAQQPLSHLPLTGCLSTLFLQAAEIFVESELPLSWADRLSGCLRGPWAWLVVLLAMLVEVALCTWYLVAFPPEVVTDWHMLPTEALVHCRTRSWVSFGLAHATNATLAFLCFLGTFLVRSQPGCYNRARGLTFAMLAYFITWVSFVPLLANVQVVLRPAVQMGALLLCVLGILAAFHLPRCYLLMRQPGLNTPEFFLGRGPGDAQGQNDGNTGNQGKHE
Experiment: Calcium mobilisation assay, TAS1R2-WT with TAS1R3 variant G832R
Type: cell-based
Settings: for Max ΔF/F0: maximal signal amplitude
Text: The coding sequences for TAS1R2 and TAS1R3 were commercially synthesised, and the human codon was optimised for expression in human cells. The coding sequences of human TAS1R2 and TAS1R3 were subcloned and inserted into the mammalian expression vectors pcDNA6/myc-HisA and pcDNA4/myc-HisA (Invitrogen; Thermo Fisher Scientific; Illkirch, France) between the EcoRI and NotI restriction sites, generating the plasmids pcDNA6-TAS1R2 and pcDNA4-TAS1R3, respectively. To increase protein expression in mammalian cells, an upstream start codon was used, which was a sequence called MAX, corresponding to the QBI SP163 element also described in pcDNA4-HisMax (Invitrogen; Thermo Fisher Scientific; Illkirch, France). To measure the expression level of the receptor by immunohistochemistry, we used the FLAG sequence ([…]) in the C-terminal position, which encodes the FLAG tag epitope. SNP variants of TAS1R2 and TAS1R3 were constructed based on […], respectively, using site-directed mutagenesis (Genewiz; Leipzig, Germany).
The HEK293T cells were kindly provided by Jay P. Slack (Givaudan Flavors Corporation; Cincinnati, OH, USA). HEK293T cells stably transfected with Gα16gust44 [43, 67] were seeded in poly-D-lysine-coated clear-bottom black 96-well plates (0.35 × 10^5 cells/well) in high-glucose DMEM supplemented with 2 mM GlutaMAX, 10% dialysed foetal bovine serum with penicillin/streptomycin and G418 (400 μg/mL) at 37 °C and 6.3% CO2 in a humidified atmosphere as previously reported. […] As a negative control, HEK293T cells were mock-transfected with the empty expression vector. After a further 24 h of incubation, the HEK293T cells were washed with C1 buffer (130 mM NaCl, 5 mM KCl, 10 mM HEPES pH 7.4 and 2 mM CaCl2). The 96-well plates containing the cells were then stimulated with sweet-tasting compounds. […] Different concentration ranges were tested depending on the sweet compound injected. The Ca^2+ changes were expressed as fractional changes in fluorescent light intensity: ΔF/F = (F − F0)/F0, where F was the fluorescent light intensity at each point, and F0 was the value of emitted fluorescent light prior to stimulus application. To calculate dose–response relationships, the changes in fluorescence upon stimulus application were averaged, mock-subtracted and baseline-corrected. The dose–response data obtained were adjusted using a 4-parameter logistic equation. The half-maximal effective concentrations (EC50 values) and maximal signal amplitudes were calculated using SigmaPlot software (version 15.0) (Systat Software; San Jose, CA, USA).
For in vitro calcium mobilisation assay performed on hTAS1R2-SNPs, hTAS1R3-SNPs and mTAS1R3-I60T, 6 to 7 concentrations were tested for each sweet compound, plus buffer alone. All concentration–receptor combinations were measured in duplicate, and each experiment was repeated at least 4 times (8 wells/concentration). Results were expressed for each concentration as ΔF/F mean ± SEM and represented as dose–response curves.

- R1 = Variant EC50/WT EC50: 0.8
- Max ΔF/F0: 0.55 ± 0.03
- EC50 (read-out: EC50): 468 ± 64 µM
Molecule: CC1=CC(=O)NS(=O)(=O)O1 [Acesulfame K, acesulfame K]

Molecule: O=S(=O)(O)NC1CCCCC1 [Cyclamate, cyclamate]
- EC50 (read-out: EC50): 998 ± 46 µM

Molecule: C[C@H](CC[C@@H](O[C@@H]1O[C@H](CO[C@@H]2O[C@H](CO)[C@@H](O)[C@H](O)[C@H]2O)[C@@H](O)[C@H](O)[C@H]1O[C@@H]1O[C@H](CO)[C@@H](O)[C@H](O)[C@H]1O)C(C)(C)O)[C@H]1CC[C@@]2(C)[C@@H]3CC=C4[C@@H](CC[C@H](O[C@@H]5O[C@H](CO[C@@H]6O[C@H](CO)[C@@H](O)[C@H](O)[C@H]6O)[C@@H](O)[C@H](O)[C@H]5O)C4(C)C)[C@]3(C)[C@H](O)C[C@]12C [Mogroside V, mogroside V]
- R1 = Variant EC50/WT EC50: 0.6
- Max ΔF/F0: 1.23 ± 0.04
- EC50 (read-out: EC50): 19.1 ± 1.7 µM

- R1 = Variant EC50/WT EC50: 0.6
- Max ΔF/F0: 1.03 ± 0.01
- EC50 (read-out: EC50): 28.1 ± 12.3 µM
Molecule: COc1ccc(CCC(=O)c2c(O)cc(O[C@@H]3O[C@H](CO)[C@@H](O)[C@H](O)[C@H]3O[C@@H]3O[C@@H](C)[C@H](O)[C@@H](O)[C@H]3O)cc2O)cc1O [NHDC, neohesperidin dihydrochalcone]

- R1 = Variant EC50/WT EC50: 0.7
- Max ΔF/F0: 0.88 ± 0.02
- EC50 (read-out: EC50): 0.8 ± 0.07 µM
Molecule: COC(=O)[C@H](Cc1ccccc1)NC(=O)[C@H](CC(=O)O)NCCC(C)(C)C [Neotame]

- R1 = Variant EC50/WT EC50: 0.5
- Max ΔF/F0: 1.18 ± 0.14
- EC50 (read-out: EC50): 7.2 ± 3 µM
Molecule: C=C(C)[C@@H]1CC=C(/C=N/O)CC1 [Perillartine, perillartine]

- R1 = Variant EC50/WT EC50: 0.6
- Max ΔF/F0: 1.38 ± 0.07
- EC50 (read-out: EC50): 22.7 ± 3.2 µM
Molecule: C=C1C[C@@]23CC[C@H]4[C@@](C)(CCC[C@@]4(C)C(=O)O[C@@H]4O[C@H](CO)[C@@H](O)[C@H](O[C@@H]5O[C@H](CO)[C@@H](O)[C@H](O)[C@H]5O)[C@H]4O[C@@H]4O[C@H](CO)[C@@H](O)[C@H](O)[C@H]4O)[C@@H]2CC[C@]1(O[C@@H]1O[C@H](CO)[C@@H](O)[C@H](O[C@@H]2O[C@H](CO)[C@@H](O)[C@H](O)[C@H]2O)[C@H]1O[C@@H]1O[C@H](CO)[C@@H](O)[C@H](O)[C@H]1O)C3 [Rebaudioside M, rebaudioside M]

- R1 = Variant EC50/WT EC50: 0.7
- Max ΔF/F0: 0.91 ± 0.02
- EC50 (read-out: EC50): 81 ± 4 µM
Molecule: OC[C@H]1O[C@H](O[C@]2(CCl)O[C@H](CCl)[C@@H](O)[C@@H]2O)[C@H](O)[C@@H](O)[C@H]1Cl [Sucralose]

- R1 = Variant EC50/WT EC50: 0.5
- EC50 (brazzein): 52.8 ± 15.7 µg/mL
- Max ΔF/F0: 0.97 ± 0.07
Molecule: brazzein (QDKCKKVYENYPVSKCQLANQCNYDCKLDKHARSGECFYDEKRNLQCICDYCEY; ends and bridges not checked; cysteine pairing not given here; UniProt P56552 1-54, looked up) [sweet-tasting protein obtained by recombinant production using the yeast Pichia pastoris]

- R1 = Variant EC50/WT EC50: 0.5
- Max ΔF/F0: 0.76 ± 0.03
Molecule: thaumatin

- EC50 (read-out: EC50): 5.7 ± 0.7 µM
B1: thaumatin (protein)
chain: ATFEIVNRCSYTVWAAASKGDAALDAGGRQLNSGESWTINVEPGTKGGKIWARTDCYFDDSGSGICKTGDCGGLLRCKRFGRPPTTLAEFSLNQYGKDYIDISNIKGFNVPMDFSPTTRGCRGVRCAADIVGQCPAKLKAPGGGCNDACTVFQTSEYCCTTGKCGPTEYSRFFKRLCPDAFSYVLDKPTTVTCPGSSNYRVTFCPTA
modifications: Eight disulfides
notes: sweet-tasting plant protein, E957
